In patent US20120094964A1, “SULFAMOYL BENZOIC ACID DERIVATIVES AS TRPM8 ANTAGONISTS” (priority 2009, published 2012):
pIC50: −log10 of the molar value.

Target: T1, human TRPM8 (Homo sapiens, UniProt Q7Z2W7)
T1 construct: expressed in transfected cells
Assay: In Vitro human TRPM8 Functional Assay (intracellular Ca2+, Fluo4, FDSS, menthol activation)
Format: cell-based
Conditions: HEK293 cells stably expressing human TRPM8; activation with L-(-)-Menthol; 11-point dose-response
Summary of the method: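 Fluo4-loaded HEK293 cells stably expressing TRPM8 were preincubated with compound for 5 min at room temperature, then stimulated with L-menthol (20 μl of 90 μM stock) while fluorescence was read. IC50 values come from 11-point curves fitted to the mean of duplicate wells.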

T1 sequence (Q7Z2W7 whole entry): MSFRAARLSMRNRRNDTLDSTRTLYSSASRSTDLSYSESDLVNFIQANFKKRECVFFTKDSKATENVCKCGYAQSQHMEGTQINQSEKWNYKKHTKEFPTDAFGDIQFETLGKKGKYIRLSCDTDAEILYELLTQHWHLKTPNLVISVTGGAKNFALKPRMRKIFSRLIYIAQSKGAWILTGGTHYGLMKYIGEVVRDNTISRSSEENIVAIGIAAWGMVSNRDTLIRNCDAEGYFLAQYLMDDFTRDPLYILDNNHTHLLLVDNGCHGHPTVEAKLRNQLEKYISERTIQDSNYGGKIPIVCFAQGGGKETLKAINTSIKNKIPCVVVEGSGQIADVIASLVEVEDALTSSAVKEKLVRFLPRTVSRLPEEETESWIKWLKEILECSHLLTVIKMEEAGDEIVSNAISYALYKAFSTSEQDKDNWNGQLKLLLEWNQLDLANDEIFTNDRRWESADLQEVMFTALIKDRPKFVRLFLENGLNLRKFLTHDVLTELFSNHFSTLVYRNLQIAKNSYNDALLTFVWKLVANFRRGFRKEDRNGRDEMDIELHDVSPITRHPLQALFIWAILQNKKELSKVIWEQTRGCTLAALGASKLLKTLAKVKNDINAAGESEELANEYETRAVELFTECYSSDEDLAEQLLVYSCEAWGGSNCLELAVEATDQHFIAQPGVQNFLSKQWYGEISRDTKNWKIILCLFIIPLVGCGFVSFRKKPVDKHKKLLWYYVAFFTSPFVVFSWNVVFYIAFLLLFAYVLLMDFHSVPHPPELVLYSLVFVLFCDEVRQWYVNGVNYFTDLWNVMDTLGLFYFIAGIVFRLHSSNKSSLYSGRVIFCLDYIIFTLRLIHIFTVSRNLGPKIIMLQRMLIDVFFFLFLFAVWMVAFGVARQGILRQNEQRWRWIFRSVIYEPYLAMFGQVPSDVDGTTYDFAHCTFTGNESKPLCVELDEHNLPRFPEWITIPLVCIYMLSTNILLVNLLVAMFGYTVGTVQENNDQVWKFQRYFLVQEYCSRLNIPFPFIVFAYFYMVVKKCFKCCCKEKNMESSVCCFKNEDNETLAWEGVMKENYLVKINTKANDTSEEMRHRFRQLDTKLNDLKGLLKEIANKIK

| pIC50 | Compound |
| --- | --- |
| > 6.00 | Cc1ccc(-c2ccc(CN(c3ncc(C(F)(F)F)cc3Cl)S(=O)(=O)c3ccc(C(=O)O)cc3)cc2)cn1 [Example 163, 4-(N-(3-chloro-5-(trifluoromethyl)pyridin-2-yl)-N-(4-(6-methylpyridin-3-yl)benzyl)sulfamoyl)benzoic acid] |
| > 6.00 | O=C(O)c1ccc(S(=O)(=O)N(Cc2ccc(Cl)c(F)c2)c2ncc(Cl)cc2Cl)cc1 [Example 62, 4-(N-(4-Chloro-3-fluorobenzyl)-N-(3,5-dichloropyridin-2-yl)sulfamoyl)benzoic acid] |
| 5.00 to 6.00 | O=C(O)c1cccc(S(=O)(=O)N(Cc2ccccc2)c2ccc(Cl)cc2)c1 [Example 115, 3-(N-Benzyl-N-(4-chlorophenyl)sulfamoyl) benzoic acid] |
| 5.00 to 6.00 | O=S(=O)(c1ccc(Cl)cc1)N(Cc1ccccc1)c1ccccn1 [Example 129, N-Benzyl-4-chloro-N-(pyridin-2-yl)benzene-sulfonamide] |
| > 6.00 | CC1(c2ccc(CN(c3ncc(Cl)cc3Cl)S(=O)(=O)c3ccc(C(=O)O)cc3)cc2)CC1 [Example 70, 4-(N-(3,5-Dichloropyridin-2-yl)-N-(4-(1-methylcyclopropyl)benzyl)sulfamoyl)benzoic acid] |
| 5.00 to 6.00 | COc1ccc(S(=O)(=O)N(Cc2ccccc2)c2ccccn2)cc1 [Example 132, N-Benzyl-4-methoxy-N-(pyridin-2-yl)benzene-sulfonamide] |
| 5.00 to 6.00 | Cc1cccc(N(C(C)c2ccccc2F)S(=O)(=O)c2ccccc2C)c1 (stereo not drawn) [Example 100, N-(1-(2-Fluorophenyl)ethyl)-2-methyl-N-tolyl benzenesulfonamide] |
| > 6.00 | O=C(O)c1ccc(S(=O)(=O)N(Cc2ccsc2)c2ncc(C(F)(F)F)cc2Cl)cc1 [Example 172, 4-(N-(3-Chloro-5-(trifluoromethyl)pyridin-2-yl)-N-(thiophen-3-ylmethyl)sulfamoyl)benzoic acid] |
| > 6.00 | O=C(O)c1ccc(S(=O)(=O)N(Cc2ccccc2)c2ncc(C(F)(F)F)cc2Cl)cc1Cl [Example 188, 4-(N-Benzyl-N-(3-chloro-5-(trifluoromethyl)pyridin-2-yl)sulfamoyl)-2-chlorobenzoic acid] |
| > 6.00 | O=C(O)c1ccc(S(=O)(=O)N(Cc2ccc(F)c(Cl)c2)c2ncc(Cl)cc2Cl)cc1 [Example 69, 4-(N-(3-Chloro-4-fluorobenzyl)-N-(3,5-dichloropyridin-2-yl)sulfamoyl)benzoic acid] |
| 5.00 to 6.00 | O=C(O)c1ccc(S(=O)(=O)N(CCN2CCOCC2)c2ncc(C(F)(F)F)cc2Cl)cc1 [Example 57, 4-(N-(3-Chloro-5-(trifluoromethyl)pyridin-2-yl)-N-(2-morpholinoethyl)sulfamoyl)benzoic acid] |
| > 6.00 | O=C(O)c1ccc(S(=O)(=O)N(Cc2ccc(Oc3ccccc3)cc2)c2ncc(C(F)(F)F)cc2Cl)cc1 [Example 169, 4-(N-(3-Chloro-5-(trifluoromethyl)pyridin-2-yl)-N-(4-phenoxybenzyl)sulfamoyl)benzoic acid] |
| > 6.00 | Cc1ccc(CN(c2ncc(Cl)cc2Cl)S(=O)(=O)c2ccc(C(=O)O)cc2)cc1F [Example 67, 4-(N-(3,5-Dichloropyridin-2-yl)-N-(3-fluoro-4-methylbenzyl)sulfamoyl)benzoic acid] |
| 5.00 to 6.00 | COc1ccc(OC)c(C(C)N(c2ccc(C)cc2)S(=O)(=O)c2ccc(C)cc2)c1 (stereo not drawn) [Example 85, N-(1-(2,5-Dimethoxyphenyl)ethyl)-4-methyl-N-p-tolylbenzenesulfonamide] |
| 5.00 to 6.00 | COc1cccc(C(C)N(c2ccccc2)S(=O)(=O)c2ccc(C)c(F)c2)c1 (stereo not drawn) [Example 101, 3-Fluoro-N-(1-(3-methoxyphenyl)ethyl)-4-methyl-N-phenylbenzene-sulfonamide] |
| > 6.00 | O=C(O)c1ccc(S(=O)(=O)N(Cc2cc(F)ccc2F)c2ncc(C(F)(F)F)cc2Cl)cc1 [Example 46, 4-(N-(3-Chloro-5-(trifluoromethyl)pyridin-2-yl)-N-(2,5-difluorobenzyl)sulfamoyl)benzoic acid] |
| > 6.00 | O=C(O)c1ccc(S(=O)(=O)N(Cc2c(F)cccc2F)c2ncc(C(F)(F)F)cc2Cl)cc1 [Example 44, 4-(N-(3-Chloro-5-(trifluoromethyl)pyridin-2-yl)-N-(2,6-difluorobenzyl)sulfamoyl)benzoic acid] |
| > 6.00 | O=C(O)c1ccc(S(=O)(=O)N(Cc2ccccc2)c2ncc(C(F)(F)F)cc2C2CC2)cc1 [Example 149, 4-(N-Benzyl-N-(3-cyclopropyl-5-(trifluoromethyl)pyridin-2-yl)sulfamoyl)benzoic acid] |
| 5.00 to 6.00 | O=C(O)c1ccc(S(=O)(=O)N(Cc2ccccn2)c2ccc(C(F)(F)F)cc2Cl)cc1 [Example 82, 4-(N-(2-Chloro-4-(trifluoromethyl)phenyl)-N-(pyridin-2-ylmethyl)sulfamoyl)benzoic acid] |
| 5.00 to 6.00 | COc1cccc(C(C)N(c2cccc(Cl)c2)S(=O)(=O)c2ccc(F)cc2C)c1 (stereo not drawn) [Example 139, N-(3-Chlorophenyl)-4-fluoro-N-(1-(3-methoxy-phenyl)ethyl)-2-methyl-benzenesulfonamide] |

| pIC50 | Compound |
| --- | --- |
| > 6.00 | O=C(O)c1ccc(S(=O)(=O)N(Cc2ccccc2-c2ccccc2)c2ncc(C(F)(F)F)cc2Cl)cc1 [Example 165, 4-(N-([1,1′-Biphenyl]-2-ylmethyl)-N-(3-chloro-5-(trifluoromethyl)pyridin-2-yl)sulfamoyl)benzoic acid] |
| > 6.00 | CN(C)C(=O)c1ccc(S(=O)(=O)N(Cc2ccccc2)c2ncc(C(F)(F)F)cc2Cl)cc1 [Example 12, 4-(Benzyl(3-chloro-5-(trifluoromethyl)pyridin-2-yl)sulfamoyl)-N,N-dimethylbenzamide] |
| > 6.00 | O=C(O)c1ccc(S(=O)(=O)N(Cc2ccc(Cl)cc2)c2ncc(C(F)(F)F)cc2Cl)cc1 [Example 32, 4-(N-(3-Chloro-5-(trifluoromethyl)pyridin-2-yl)-N-(4-chlorobenzyl)sulfamoyl)benzoic acid] |
| 4.52 to 5.00 | O=C(O)c1cccc(S(=O)(=O)N(Cc2ccccc2)c2ccccc2Cl)c1 [Example 112, 3-(N-Benzyl-N-(2-chlorophenyl)sulfamoyl) benzoic acid] |
| > 6.00 | O=C(O)c1ccc(S(=O)(=O)N(Cc2ccccc2)c2ncc(-c3ccco3)cc2Cl)cc1 [Example 183, 4-(N-Benzyl-N-(3-chloro-5-(furan-2-yl)pyridin-2-yl)sulfamoyl)benzoic acid] |
| > 6.00 | O=C(O)c1ccc(S(=O)(=O)N(Cc2csc(-c3ccccc3)n2)c2ncc(C(F)(F)F)cc2Cl)cc1 [Example 198, 4-(N-(3-Chloro-5-(trifluoromethyl)pyridin-2-yl)-N-((2-phenylthiazol-4-yl)methyl)sulfamoyl)benzoic acid] |
| > 6.00 | COc1cccc(-c2cnc(N(Cc3ccccc3)S(=O)(=O)c3ccc(C(=O)O)cc3)c(Cl)c2)c1 [Example 187, 4-(N-Benzyl-N-(3-chloro-5-(3-methoxyphenyl)pyridin-2-yl)sulfamoyl)benzoic acid] |
| > 6.00 | COc1ccc(N(C(C)c2ccccc2F)S(=O)(=O)c2ccc(F)cc2)cc1 (stereo not drawn) [Example 88, 4-Fluoro-N-(1-(2-fluorophenyl)ethyl)-N-(4-methoxyphenyl)benzene-sulfonamide] |
| > 6.00 | O=C(O)c1ccc(S(=O)(=O)N(Cc2ccc(-c3cccnc3)cc2)c2ncc(C(F)(F)F)cc2Cl)cc1 [Example 154, 4-(N-(3-Chloro-5-(trifluoromethyl)pyridin-2-yl)-N-(4-(pyridin-3-yl)benzyl)sulfamoyl)benzoic acid] |
| 5.00 to 6.00 | O=C(O)c1ccc(S(=O)(=O)N(Cc2ccccc2)c2cccc(C(F)(F)F)n2)cc1 [Example 22, 4-(N-Benzyl-N-(6-(trifluoromethyl)pyridin-2-yl)sulfamoyl)benzoic acid] |
| > 6.00 | O=C(O)c1ccc(S(=O)(=O)N(Cc2ccc(C3CC3)cc2)c2ncc(C(F)(F)F)cc2Cl)cc1 [Example 150, 4-(N-(3-Chloro-5-(trifluoromethyl)pyridin-2-yl)-N-(4-cyclopropylbenzyl)sulfamoyl)benzoic acid] |
| > 6.00 | COc1ccc(CN(c2ncc(C(F)(F)F)cc2Cl)S(=O)(=O)c2ccc(C(=O)O)cc2)cc1 [Example 16, 4-(N-(3-Chloro-5-(trifluoromethyl)pyridin-2-yl)-N-(4-methoxybenzyl)sulfamoyl)benzoic acid] |
| 5.00 to 6.00 | O=C(O)c1ccc(S(=O)(=O)N(CCN2CCCCC2)c2ccc(C(F)(F)F)cc2Cl)cc1 [Example 83, 4-(N-(2-Chloro-4-(trifluoromethyl)phenyl)-N-(2-(piperidin-1-yl)ethyl)sulfamoyl)benzoic acid] |
| > 6.00 | COc1ccc(-c2ccc(CN(c3ncc(C(F)(F)F)cc3Cl)S(=O)(=O)c3ccc(C(=O)O)cc3)cc2)cn1 [Example 162, 4-(N-(3-chloro-5-(trifluoromethyl)pyridin-2-yl)-N-(4-(6-methoxypyridin-3-yl)-benzyl)sulfamoyl)benzoic acid] |
| 5.00 to 6.00 | O=C(O)c1cc(S(=O)(=O)N(Cc2ccccc2)c2ccc(Cl)cc2)ccc1Cl [Example 122, 5-(N-Benzyl-N-(4-chlorophenyl)sulfamoyl)-2-chlorobenzoic acid] |
| > 6.00 | O=C(O)c1ccc(S(=O)(=O)N(Cc2ccc(NC(=O)c3ccccn3)cc2)c2ncc(C(F)(F)F)cc2Cl)cc1 [Example 161, 4-(N-(3-Chloro-5-(trifluoromethyl)pyridin-2-yl)-N-(4-(picolinamido)benzyl)sulfamoyl)benzoic acid] |
| > 6.00 | Cc1ccc(CN(c2ncc(Cl)cc2Cl)S(=O)(=O)c2ccc(C(=O)O)cc2)cc1C(F)(F)F [Example 68, 4-(N-(3,5-dichloropyridin-2-yl)-N-(4-methyl-3-(trifluoromethyl)benzyl)sulfamoyl)benzoic acid] |
| 5.00 to 6.00 | COc1cccc(N(C(C)c2ccccc2F)S(=O)(=O)c2ccccc2F)c1 (stereo not drawn) [Example 92, 2-Fluoro-N-(1-(2-fluorophenyl)ethyl)-N-(3-methoxyphenyl)benzene-sulfonamide] |
| 4.52 to 5.00 | COc1ccccc1N(Cc1ccccc1)S(=O)(=O)c1cccc(C(=O)O)c1 [Example 114, 3-(N-Benzyl-N-(2-methoxyphenyl)sulfamoyl) benzoic acid] |
